Source: US6685617B1, “Inhibitors of α4β1 mediated cell adhesion” (Pharmacia & Upjohn Company, priority 1998, dated 2004)

Key:
[1] = biological target: T1, α4β1 integrin (Jurkat T-cell adhesion to IL-1 stimulated endothelial cell monolayers) (Homo sapiens, UniProt P05556+P13612); assay: Jurkat-endothelial cell adhesion assay (Jurkat EC); format: cell-based; settings: Jurkat cells on IL-1 stimulated human umbilical vein endothelial cells; read-out: JK/EC (Jurkat EC Assay IC50 value range)
T1 construct: a T-cell line, Jurkat, known to express the α4β1 integrin; host or cells: Jurkat T-cell line
Method in brief: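 Adhesion was expressed as percent of compound-free fluorescence after 20 min at 37° C (following 5 min settling on ice) of BCECF-loaded Jurkat T cells on washed HUVEC monolayers. The endothelium, passage 6 or lower, had received 0.1 ng/ml recombinant IL-1 for 4 hr at 37° C; compound was premixed with the T cells, typically at 100, 20, 5 and 1.25 μM.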

[2] = biological target: T2, α4β1 integrin (Jurkat cell adhesion to immobilized CS-1 derived peptide CLHPGEILDVPST) (Homo sapiens, UniProt P05556+P13612); assay: Jurkat-CS-1 assay; format: cell-based; settings: Jurkat cells on CS-1 peptide coated plates; read-out: JK/CS-1 (Jurkat CS-1 Assay IC50 value range)
T2 construct: 100 μl of Jurkat cells (2.5×10^6 cells/ml) in DMEM plus BSA; host or cells: Jurkat T-cell line
Method in brief: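 CS-1 peptide was SPDP-crosslinked onto HSA-coated plates and blocked with BSA. Jurkat cells (2.5×10^6 cells/ml) in DMEM/BSA were mixed with compound, generally at 100, 20, 5 and 1.25 μM, and allowed to adhere for 1 hr at 37° C. Bound cells were fixed, stained with toluidine blue and quantified by OD590.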

[3] = system: VLA-4 integrin-dependent eosinophil infiltration; assay: Dextran pleurisy model (intrapleural dextran, pleural leukocyte infiltration); format: in vivo, C57BL/6 mice; settings: dose 50 × 2 iv; mouse, 4 h after intrapleural dextran
Protocol: Animals, Housing and Viral Testing:
C57BL/6 mice (Jackson, Bar Harbor, Me.), 6-8 weeks old, weighing 20-25 g were used throughout. All mice were acclimated for at least 7-14 days after arrival and maintained under controlled temperature (20-22° C.) and a 12 hr daily light cycle (6.00 A.M.-6.00 P.M.). Mice were housed in laminar flow racks and checked biweekly for viral infections (mouse hepatitis virus, minute virus of mice, rodent orphan parvovirus, Sendai) with kits obtained from Oreganon Teknika (Durham, N.C.) using established enzyme-linked immunoabsorbent assays. Mice testing positive for any of the above were omitted from the study. […]
Quantitation of Pleural Inflammatory Leukocyte Responses: […]
The pleural cavities of mice receiving either no intrapleural injection, or saline were washed and the cells counted in the same way to estimate baseline or saline-induced pleural leukocyte counts respectively. […]
The following compounds were tested for their inhibitory effects on dextran-induced leukocyte infiltration: Examples 3, 8, 9, 10, 12, 16, 37, 62, 66, 67, 99, 100, 111, 113, 115, 127, 131, 141, 184, 185, 192, PBS (saline) was administered iv. as a control. Inhibition of eosinophil infiltration, which was suppressed by anti-alpha-4 Mab (PS/2, 50%), was used as a readout of VLA-4 antagonist activity of the compounds tested. […]

T2 sequence (P13612 34-1032): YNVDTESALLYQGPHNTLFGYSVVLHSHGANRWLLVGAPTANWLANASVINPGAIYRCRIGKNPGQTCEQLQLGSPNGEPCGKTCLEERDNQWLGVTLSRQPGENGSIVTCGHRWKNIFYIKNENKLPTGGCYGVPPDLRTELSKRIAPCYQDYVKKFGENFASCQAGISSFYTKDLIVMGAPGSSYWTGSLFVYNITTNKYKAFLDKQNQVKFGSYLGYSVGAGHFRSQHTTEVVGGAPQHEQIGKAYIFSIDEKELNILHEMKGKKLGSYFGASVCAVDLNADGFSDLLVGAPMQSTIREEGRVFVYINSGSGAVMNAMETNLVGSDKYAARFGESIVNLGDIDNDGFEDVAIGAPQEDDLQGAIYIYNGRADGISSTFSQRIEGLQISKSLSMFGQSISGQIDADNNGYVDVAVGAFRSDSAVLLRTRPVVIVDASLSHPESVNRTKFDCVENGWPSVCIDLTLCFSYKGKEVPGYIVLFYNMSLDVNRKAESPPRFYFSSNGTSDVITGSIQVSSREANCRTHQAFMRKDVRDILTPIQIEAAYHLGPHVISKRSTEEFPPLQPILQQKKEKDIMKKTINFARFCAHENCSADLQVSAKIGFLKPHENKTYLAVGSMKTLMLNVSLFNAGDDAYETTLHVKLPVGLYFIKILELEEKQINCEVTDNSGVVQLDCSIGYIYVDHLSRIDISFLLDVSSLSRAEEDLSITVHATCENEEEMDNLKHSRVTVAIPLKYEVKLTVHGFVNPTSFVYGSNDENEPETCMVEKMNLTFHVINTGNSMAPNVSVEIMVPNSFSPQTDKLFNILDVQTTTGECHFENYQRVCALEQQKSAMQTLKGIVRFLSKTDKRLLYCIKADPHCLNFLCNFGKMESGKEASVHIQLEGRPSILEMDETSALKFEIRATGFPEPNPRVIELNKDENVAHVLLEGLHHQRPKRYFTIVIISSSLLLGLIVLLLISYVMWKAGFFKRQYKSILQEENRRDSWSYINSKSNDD
T2 sequence (P05556 21-798): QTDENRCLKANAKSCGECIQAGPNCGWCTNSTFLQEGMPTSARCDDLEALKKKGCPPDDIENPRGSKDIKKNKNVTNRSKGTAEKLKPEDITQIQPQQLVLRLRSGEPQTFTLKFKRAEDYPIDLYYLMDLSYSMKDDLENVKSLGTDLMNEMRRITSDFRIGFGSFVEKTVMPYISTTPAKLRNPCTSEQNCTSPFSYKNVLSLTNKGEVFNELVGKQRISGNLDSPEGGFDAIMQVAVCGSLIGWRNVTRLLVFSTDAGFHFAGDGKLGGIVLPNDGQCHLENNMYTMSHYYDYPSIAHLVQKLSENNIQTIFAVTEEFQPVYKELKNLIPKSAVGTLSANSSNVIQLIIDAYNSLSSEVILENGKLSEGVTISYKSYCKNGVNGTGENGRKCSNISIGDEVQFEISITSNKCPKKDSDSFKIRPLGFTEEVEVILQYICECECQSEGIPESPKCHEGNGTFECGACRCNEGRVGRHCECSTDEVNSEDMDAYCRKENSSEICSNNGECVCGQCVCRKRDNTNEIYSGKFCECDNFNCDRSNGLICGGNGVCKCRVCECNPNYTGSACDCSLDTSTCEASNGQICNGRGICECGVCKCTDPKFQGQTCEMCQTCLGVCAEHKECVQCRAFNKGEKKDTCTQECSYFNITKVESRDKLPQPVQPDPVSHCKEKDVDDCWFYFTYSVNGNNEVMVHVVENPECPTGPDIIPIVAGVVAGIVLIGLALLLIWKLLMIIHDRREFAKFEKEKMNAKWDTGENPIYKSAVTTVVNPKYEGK
T1 sequence (P13612 34-1032): as the sequence (P13612 34-1032) above
T1 sequence (P05556 21-798): as the sequence (P05556 21-798) above

| Molecule | IC50 [1] [nM] | IC50 [2] [nM] | melting point [°C] | % Inhibition of Eosinophil infiltration (Eos) [3] |
| --- | --- | --- | --- | --- |
| COC(=O)[C@H](Cc1ccc(NC(=O)c2c(Cl)cccc2Cl)cc1)NC(=O)[C@@H]1CCN1 [Example 158, [2S-(R*,R*)]-2-[[[1-[[4-[(2,6-Dichlorobenzoyl)amino]phenyl]methyl]-2-methoxy-2-oxoethyl]amino]carbonyl]azetidine] | ≥ 1000 | ≥ 750 | 113 to 115 | – |
| CS(=O)(=O)N1CSC[C@@H]1C(=O)N[C@@H](Cc1ccc(OCc2c(Cl)cccc2Cl)cc1)C(N)=O [Example 159] | ≥ 1000 | ≥ 750 | 228 to 230 | – |
| [2R-[1(S*),2α,4β(S*)]]-4-[[[1-Carboxy-2-[4-[(2,6-dichlorobenzoyl)amino]phenyl]ethyl]-amino]carbonyl]-1-(1-phenylethyl)-2-azetidincearboxylic Acid, Dilithium Salt [Example 131] | 250 to 1000 | 50 to 750 | – | C (C<19) |
